Experimental data from patent publication US20260217712A1, “SOLID STATE FORMS OF MNK INHIBITORS” (4E Therapeutics, Inc., priority 2023, published 2026).
Values after ≈ are worked out from the molar mass of the structure shown. “Also recorded” adds a separate entry of the source. Structures can show the parent of a compound that is named as a salt. Where two headings read alike, the source gives them in different places.

Key:
Type in all cases: physicochemical
[1] = Static storage at 40° C./75% RH, XRPD and HPLC post storage; details: for stability to storage at 40° C./75% RH (in words): 40° C./75% RH (elevated temperature and humidity); for HPLC purity post storage at 40° C./75% RH / XRPD post storage at 40° C./75% RH: 7 days
Experimental: Purity analysis was performed on an Agilent HP1100/Infinity II 1260 series system equipped with a diode array detector and using OpenLAB software. The full method details are provided below:
Poorly Crystalline Structure (I) (from Lot A, Free Form Pattern 1, 30 mg) was dissolved in 50 volumes of THF:Water 9:1 at 60° C. in 13 vials, stirring at 500 RPM (small amount of debris present). The solutions were then treated with 1.1 molar equivalents (90/180 μL) of selected counter-ions (Table 7). The resulting solutions were then cooled down to 5° C. at 0.1° C./min and were held at this temperature for 2 days. The suspensions were filtered and dried under suction for 20 min. The gummed sample was left with the cap off to promote crystallization. All solids obtained were initially analyzed by XRPD and stored in glass HPLC vials for subsequent analysis.
Any solids obtained were analyzed by XRPD, ^1H NMR, HPLC, TGA, DSC, XRPD post storage at 40° C./75% RH after 7 days & IC if necessary. Additional microscopy techniques (PLM & HSM) were used to complement the above analysis where appropriate.

[2] = Drying / standing under ambient conditions, XRPD; details: for XRPD (Dry): after drying under ambient conditions overnight
Experimental: Structure (I) (Sample 28-2, 30 mg, Poorly Crystalline Pattern 3) was wetted with solvent (300 μL, 10 vol) according to Table 30 and put into a shaker at 50° C. for 6 days. The suspensions were isolated using filter cartridges and positive pressure. A XRPD pattern was collected for each sample. […] This characterization is presented and discussed in Examples detailed herein. (see, e.g., FIG. 75)

[3] = Static storage at 40° C./75% RH, XRPD and HPLC post storage; details: 7 days
[4] = Initial solubility testing in solvents; details: for solubility: organic solvent or mixture, thermodynamic from solid
Experimental: Structure (I) (20 mg) from Lot A (free form Pattern 1) was charged into HPLC vials, treated with solvent, 10 volumes at a time, until the material fully dissolved or a maximum of 50 volumes had been added. Once 50 volumes was reached without dissolution, the temperature was increased to 50° C. To each suspension, 1.1 molar equiv. (60 μL) of HCl (1M in THF) was added, stirred for 5 min, and slowly cooled to 5° C. at 0.1° C./min and held at that temperature overnight. All solids were then isolated by filtration through PTFE frits and dried under suction for 20 min. The samples were analyzed by XRPD.

[5] = Static storage at 25° C./97% RH, XRPD and HPLC post storage; details: 8 days, listed as Lot A
[6] = Gravimetric vapor sorption (GVS) and XRPD post-GVS
Experimental: Sorption isotherms were obtained using a SMS DVS Intrinsic moisture sorption analyzer, controlled by DVS Intrinsic Control software. The sample temperature was maintained at 25° C. by the instrument controls. The humidity was controlled by mixing streams of dry and wet nitrogen, with a total flow rate of 200 mL/min. The relative humidity was measured by a calibrated Rotronic probe (dynamic range of 1.0-100% RH), located near the sample. The weight change, (mass relaxation) of the sample as a function of % RH was constantly monitored by a microbalance (accuracy±0.005 mg).
(§1) Typically, 5-30 mg of sample was placed in a tared mesh stainless steel basket under ambient conditions. The sample was loaded and unloaded at 40% RH and 25° C. (typical room conditions). A moisture sorption isotherm was performed as outlined below (2 scans per complete cycle). The standard isotherm was performed at 25° C. at 10% RH intervals over a 0-90% RH range. Typically, a double cycle (4 scans) was carried out. Data analysis was carried out within Microsoft Excel using the DVS Analysis Suite.
Sorption isotherms were obtained using a Hiden IGASorp moisture sorption analyser, controlled by Isochema HISorp software. The sample temperature was maintained at 25° C. by a Grant LT ecocool 150 re-circulating water bath. The humidity was controlled by mixing streams of dry and wet nitrogen, with a total flow rate of 250 ml·min-1. The relative humidity was measured by a calibrated Vaisala RH probe (dynamic range of 0-95% RH), located near the sample. The weight change, (mass relaxation) of the sample as a function of % RH was constantly monitored by the microbalance (accuracy±0.001 mg).
as §1, with “Typically, 20-30” for “Typically, 5-30”, “scans giving 1” for “scans per”, “within the Isochema HISorp 2019 software and exported into” for “within”, “Excel to present accordingly.” for “Excel using the DVS Analysis Suite.”

pKa measurements = details: listed as Lot A
[7] = Thermodynamic solubility in simulated media and buffers; details: 25 °C, thermodynamic from solid
Experimental: The thermodynamic solubility for Pattern 11 was determined in 3 simulated media and two buffers. […]

Cc1cc(Nc2cc(N)ncn2)c(=O)n2c1C(=O)NC21CCC2(CC2)CC1 [Pattern 7]
stability to storage at 40° C./75% RH (in words) ([1]; listed as 30-6): not stable to static storage
XRPD (Dry) ([2]; listed as 30-6): Pattern 7
XRPD post storage at 40° C./75% RH ([3]; listed as 30-6): 7 days: Change in form-Pattern 3

Cc1cc(Nc2cc(N)ncn2)c(=O)n2c1C(=O)NC21CCC2(CC2)CC1 [Pattern 8-2]
solubility ([4]; 50 °C, 50 vol, 50° C., read-out: solubilization upon heating to 50° C.): < 20 mg/mL
solubility ([4]; 20 mg in 10 vol of the sample's solvent, read-out: solubilization at 10 vol): < 100 mg/mL
solubility ([4]; 20 vol of the sample's solvent, read-out: solubilization at 20 vol): < 50 mg/mL
solubility ([4]; 30 vol of the sample's solvent, read-out: solubilization at 30 vol): < 33.3 mg/mL
solubility ([4]; 40 vol of the sample's solvent, read-out: solubilization at 40 vol): < 25 mg/mL
solubility ([4]; 50 vol of the sample's solvent, read-out: solubilization at 50 vol): < 20 mg/mL

Cc1cc(Nc2cc(N)ncn2)c(=O)n2c1C(=O)NC21CCC2(CC2)CC1 [Pattern 1]
solubility in solvents (in words) ([4]; up to 50 vol, up to 50° C.): insoluble in most solvents
HPLC purity after storage at 25° C./97% RH (8 days) [5]: HPLC-97.5%
XRPD after storage at 25° C./97% RH (8 days) [5]: XRPD-poorly crystalline Pattern 1 (no change)
GVS mass change expressed as water ([6]; 0-90% RH): ~90% RH, exhibiting a slight hysteresis (ca. 6 mol eq water),
Post GVS XRPD form ([6]; after double cycle GVS, listed as Lot A): unchanged; also recorded: showed that the solid form remained as poorly crystalline
hygroscopicity (in words) ([6]; listed as Lot A): highly hygroscopic. XRPD of the sample after the analysis
acidic pKa (acidic center) (pKa measurements): Acidic: 11.49
basic pKa (pKa measurements): Basic: 4.73
HPLC after storage at 40° C./75% RH (8 days) ([1]; 40° C./75% RH, 8 days): HPLC-98.2%
XRPD after storage at 40° C./75% RH (8 days) ([1]; 40° C./75% RH, 8 days, listed as Lot A): unchanged; also recorded: XRPD-poorly crystalline Pattern 1 (no change)
solubility thermodynamic ([7]; simulated gastric fluid, SGF (pH 1.4), read-out: Thermodynamic solubility in simulated media, SGF): 0.13 mg/mL (≈ 0.355 mM)
solubility thermodynamic ([7]; FaSSIF (pH 6.7), read-out: Thermodynamic solubility in simulated media, FaSSIF): 0.006 mg/mL (≈ 0.0164 mM)
solubility thermodynamic ([7]; FeSSIF (pH 5.1), read-out: Thermodynamic solubility in simulated media, FeSSIF): 0.02 mg/mL (≈ 0.0546 mM)

Cc1cc(Nc2cc(N)ncn2)c(=O)n2c1C(=O)NC21CCC2(CC2)CC1 [Pattern 6]
XRPD (Dry) ([2]; listed as 30-4): maintained after mild drying; also recorded: Pattern 6
XRPD post storage at 40° C./75% RH ([3]; listed as 30-4): convert to Pattern 3; also recorded: form-Pattern 3

Cc1cc(Nc2cc(N)ncn2)c(=O)n2c1C(=O)NC21CCC2(CC2)CC1 [Pattern 9]
XRPD (Dry) [2]: unstable to drying under ambient conditions
form under ambient conditions (XRPD after ambient overnight) ([2]; ambient conditions): unstable at ambient conditions

Cc1cc(Nc2cc(N)ncn2)c(=O)n2c1C(=O)NC21CCC2(CC2)CC1 [SUL Pattern 1]
change of chemical purity on storage at 40° C./75% RH (in words) ([1]; 40° C./75% RH): decrease in the observed chemical purity
stability to storage at 40° C./75% RH (in words) [1]: stable to storage
HPLC purity post storage at 40° C./75% RH ([1]; 40° C./75% RH, listed as 9-3): 95.6%
change of chemical purity on storage at 40° C./75% RH (in words) ([1]; 40° C./75% RH, listed as 9-3): complex thermal data, loss of purity
XRPD post storage at 40° C./75% RH ([3]; listed as 9-3): SUL Pattern 1

Cc1cc(Nc2cc(N)ncn2)c(=O)n2c1C(=O)NC21CCC2(CC2)CC1 [Phosphate Pattern 1]
stability to storage at 40° C./75% RH (in words) [1]: remained stable by XRPD & HPLC
stability to storage at 40° C./75% RH (in words) ([1]; listed as 9-8): data. Form looks stable
XRPD post storage at 40° C./75% RH ([1]; 40° C./75% RH): consistent with PHO Pattern 1
HPLC purity post storage at 40° C./75% RH ([1]; 40° C./75% RH, listed as 9-8): 98.5% purity. Phosphate
HPLC purity post storage at 40° C./75% RH ([1]; 40° C./75% RH, listed as 22-2): 99.1%
XRPD post storage at 40° C./75% RH ([3]; listed as 9-8): pattern retained,
XRPD post storage at 40° C./75% RH ([3]; listed as 22-2): Unchanged

Cc1cc(Nc2cc(N)ncn2)c(=O)n2c1C(=O)NC21CCC2(CC2)CC1 [HCl Patterns 1 and 3]
stability to storage at 40° C./75% RH (in words) [1]: stable to storage
HPLC purity post storage at 40° C./75% RH ([1]; 40° C./75% RH, listed as 9-2): 97.7% purity
XRPD post storage at 40° C./75% RH ([3]; listed as 9-2): No change by XRPD

Cc1cc(Nc2cc(N)ncn2)c(=O)n2c1C(=O)NC21CCC2(CC2)CC1 [amorphous material]
XRPD post storage at 40° C./75% RH ([1]; 40° C./75% RH): converted to Free Form Pattern 3
XRPD post storage at 40° C./75% RH ([3]; listed as 28-1): 7 days: Crystallization-Pattern 3 (WD)

Cc1cc(Nc2cc(N)ncn2)c(=O)n2c1C(=O)NC21CCC2(CC2)CC1 [Pattern 4]
XRPD post storage at 40° C./75% RH ([1]; 40° C./75% RH): converted to Pattern 3
XRPD post storage at 40° C./75% RH ([3]; listed as 27-1): Change in form—Pattern 3

Cc1cc(Nc2cc(N)ncn2)c(=O)n2c1C(=O)NC21CCC2(CC2)CC1 [Maleate Pattern 1]
stability to storage at 40° C./75% RH (in words) ([1]; listed as 9-7): data. Form looks stable
XRPD post storage at 40° C./75% RH ([1]; 40° C./75% RH): consistent with Maleate Pattern 1
HPLC purity post storage at 40° C./75% RH ([1]; 40° C./75% RH, listed as 9-7): 98.8% purity. Maleate
XRPD post storage at 40° C./75% RH ([3]; listed as 9-7): pattern retained; very

Cc1cc(Nc2cc(N)ncn2)c(=O)n2c1C(=O)NC21CCC2(CC2)CC1 [Pattern 8]
XRPD (Dry) [2]: unstable to drying under ambient conditions
XRPD post storage at 40° C./75% RH ([3]; listed as 30-15): Pattern 3

Cc1cc(Nc2cc(N)ncn2)c(=O)n2c1C(=O)NC21CCC2(CC2)CC1 [MES Pattern 2]
HPLC purity post storage at 40° C./75% RH ([1]; 40° C./75% RH, listed as 22-6): 99.1%
change of chemical purity on storage at 40° C./75% RH (in words) ([1]; 40° C./75% RH, listed as 21-1): Notable increase in purity after
XRPD post storage at 40° C./75% RH ([3]; listed as 21-1): storage, with no observed impact
XRPD post storage at 40° C./75% RH ([3]; listed as 22-6): Unchanged
